The values that follow come from US20100266674A1, “L-ODDC PRODRUGS FOR CANCER” (UNIVERSITY OF GEORGIA RESEARCH FOUNDATION, INC., priority 2006, published 2010).

Series [1] concerns SW1573 non-small cell lung cancer cell line. In words: SRB chemosensitivity (cytotoxicity) assay, SW1573. It is filed as cell-based. The conditions noted are these: SRB test, 72 h incubation, mean of 3 experiments. How it is done: (§1) The compounds were evaluated on two non-small cell lung cancer cell lines (A549 and SW1573). These cell lines were characterized for deoxynucleoside analog sensitivity and activity of dCK previously.
(§2) The chemosensitivity assay used in this study was the sulforhodamineB (SRB) assay as described earlier (Keepers et al, Eur J. Cancer, 1991; Rubinstein et al, J. Natl. Cancer Inst., 1990). Cells were transferred to 96 wells plates on day 0; on day 1 a serial dilution of the drug was made from a stock solution and added to the cells in triplicate. After an incubation period of 72 h the cells were fixed for 1 hr at 4° C. with 50% trichloroacetic acid washed, air-dried and stained with 0.4% SRB. The optical density was measured at 492 nm with a microplate reader (Tecan, Salzburg, Austria).
(§3) The results were expressed as percentage of control growth: […]
(§4) The data were plotted in a graph to give a growth inhibition curve. From this growth inhibition curve the […] value was determined by interpolating at the 50% growth level. […] LogP was estimated using ChemDraw 8.0 ultra. IC50s are expressed as mean of 3 experiments.
A general note: In SRB staining, fixed cells bind dye roughly in proportion to their protein.

Series [2] relates to A549 non-small cell lung cancer cell line. Kind of series: SRB chemosensitivity (cytotoxicity) assay, A549. The following applies: SRB test, 72 h incubation, mean of 3 experiments. The class given is cell-based. The protocol:
as §1, §2, §3, §4

For series [3] the following is noted: cited from earlier work.
The test system of series [4] is A549. In words: SRB assay with addition of dipyridamole (role of ENT transport), A549. The class given is cell-based. The following applies: A549, dipyridamole added to the cells. An excerpt:
These cell lines were chosen because they had been characterized earlier for sensitivity to gemcitabine and for the activity of the rate-limiting enzyme in the activation of gemcitabine and troxacitabine, deoxycytidine kinase (dCK); […] In addition, non-small cell lung cancer is routinely being treated with gemcitabine containing regimens. […] It should be noted that it is unlikely that they are being phosphorylated as prodrugs due to their steric hindrance. […] In a cell line we tested whether transport (ENT) would play a role by addition of dipyridamole to the cells. In A549 dipyridamole gave a 2-fold increase in the IC50, but this was not observed for the prodrugs. […] It is likely that these cycloalkyl and aromatic moieties at the N4 position of compounds 6l-t may render these compounds poor substrates of intracellular amidases. We therefore speculate that the amidase-catalyzed hydrolysis of the prodrugs may play an important role, allowing the release of troxacitabine into the intracellular compartment for activation (the triphosphate). The better activity profile of prodrugs 6h-k could have been the result of an increased uptake due to the high lipophilicity as well as of a high rate of amidase-catalyzed cleavage of the linear aliphatic derivatives intracellularly.

The subject of series [5] is BxPC-3 pancreatic cancer cell line. Kind of series: SRB cytotoxicity assay, BxPC-3. The class given is cell-based. The following applies: BxPC-3 (BxPC3) pancreatic cancer cell line. How it is done:
(§5) Sensitivity to four prodrugs with linear aliphatic chains of different length was determined by the SRB cytotoxicity assay^[12], the IC50 value of the drug was determined in the different cell lines by interpolating the growth inhibition curves. The tests were performed on the BxPC-3 and Panc-02 pancreatic cancer cell lines.

The test system of series [6] is Panc-02 pancreatic cancer cell line. Kind of series: SRB cytotoxicity assay, Panc-02. It is filed as cell-based. How it is done:
as §5

`CCCCCCCCCCCCCCCC(=O)Nc1ccn([C@@H]2CO[C@H](CO)O2)c(=O)n1` [Compound 6k, (−)-(2S,4S)-1-[2-(Hydroxymethyl)-1,3-dioxolan-4-yl]-4-N-palmitoyl-cytosine]: the IC50 was 0.02 µM in series [1] (Homo sapiens, SW1573) and 0.004 µM in series [2] (Homo sapiens, A549).

For `Nc1ccn([C@@H]2CO[C@H](CO)O2)c(=O)n1` [Troxacitabine, (−)-2′-deoxy-3′-oxacytidine, reference compound], the IC50 in series [1] (Homo sapiens, SW1573) stood at 2.3 µM; in series [2] (Homo sapiens, A549), 0.68 µM. Also, in series [3], the plasma half-life is on record as 82 h. Also, the “increase in the IC50 by dipyridamole” value in series [4] is reported as 2 fold.

Turning to `O=c1nc(NC2CCCC2)ccn1[C@@H]1CO[C@H](CO)O1` [Compound 6m, (−)-(2S,4S)-1-[2-(Hydroxymethyl)-1,3-dioxolan-4-yl]-4-N-cyclopentyl-cytosine], the IC50 in series [1] (Homo sapiens, SW1573) was determined as 8.8 µM; in series [2] (Homo sapiens, A549), 2.97 µM.

On to `O=C(Nc1ccn([C@@H]2CO[C@H](CO)O2)c(=O)n1)c1ccc(Cl)cc1` [Compound 6q, (−)-(2S,4S)-1-[2-(Hydroxymethyl)-1,3-dioxolan-4-yl]-4-N-(p-chlorobenzoyl)-cytosine], for which the IC50 was found to be 2.77 µM in series [1] (Homo sapiens, SW1573) and 0.41 µM in series [2] (Homo sapiens, A549).

As for `CCCCCCCCCCCCNc1ccn([C@@H]2CO[C@H](CO)O2)c(=O)n1` [Compound 6j, (−)-(2S,4S)-1-[2-(Hydroxymethyl)-1,3-dioxolan-4-yl]-4-N-lauryl-cytosine], the “decrease in IC50 / enhancement of sensitivity compared to troxacitabine” value in series [5] came out at 160 fold. Further, the half-inhibitory concentration (IC50) worked out at 0.033 µM in series [1] (Homo sapiens, SW1573) and 0.015 µM in series [2] (Homo sapiens, A549).

Regarding `CCCC(=O)Nc1ccn([C@@H]2CO[C@H](CO)O2)c(=O)n1` [Compound 6c, (−)-(2S,4S)-1-[2-(Hydroxymethyl)-1,3-dioxolan-4-yl]-4-N-butirryl-cytosine], the IC50 was 8.07 µM in series [1] and 6.6 µM in series [2].

Turning to `O=C(Nc1ccn([C@@H]2CO[C@H](CO)O2)c(=O)n1)c1ccc(F)cc1` [Compound 6p, (−)-(2S,4S)-1-[2-(Hydroxymethyl)-1,3-dioxolan-4-yl]-4-N-(p-fluorobenzoyl)-cytosine], the IC50 turned out to be 15.3 µM in series [1] (Homo sapiens, SW1573) and 8.67 µM in series [2] (Homo sapiens, A549).

`CCCCCCCCC(=O)Nc1ccn([C@@H]2CO[C@H](CO)O2)c(=O)n1` [Compound 6h, (−)-(2S,4S)-1-[2-(Hydroxymethyl)-1,3-dioxolan-4-yl]-4-N-nonanoyl-cytosine]: the half-inhibitory concentration (IC50) worked out at 0.276 µM in series [1] (Homo sapiens, SW1573) and 0.046 µM in series [2] (Homo sapiens, A549).

`CCCCCCCCCC(=O)Nc1ccn([C@@H]2CO[C@H](CO)O2)c(=O)n1` [Compound 6i, (−)-(2S,4S)-1-[2-(Hydroxymethyl)-1,3-dioxolan-4-yl]-4-N-decanoyl-cytosine]: the melting point is 141 to 143 °C. The compound further showed an IC50 in series [1] (Homo sapiens, SW1573) of 0.04 µM. This compound had a concentration for half-maximal inhibition (IC50) in series [2] (Homo sapiens, A549) of 0.024 µM. The “enhancement of sensitivity compared to troxacitabine” value in series [6] is reported as 1400 fold.

Consider `Nc1ccn([C@@H]2O[C@H](CO)[C@@H](O)[C@@H]2O)c(=O)n1` [Cytarabine, reference compound], for which the half-maximal inhibitory concentration (IC50) in series [1] (Homo sapiens, SW1573) came out at 10.5 µM; in series [2] (Homo sapiens, A549) it was 0.62 µM.

With `O=C(Nc1ccn([C@@H]2CO[C@H](CO)O2)c(=O)n1)c1ccc(Br)cc1` [Compound 6r, (−)-(2S,4S)-1-[2-(Hydroxymethyl)-1,3-dioxolan-4-yl]-4-N-(p-bromobenzoyl)-cytosine], the IC50 in series [1] (Homo sapiens, SW1573) amounted to 8.87 µM; in series [2] (Homo sapiens, A549) it was 4.53 µM.

Regarding `CCCCC(=O)Nc1ccn([C@@H]2CO[C@H](CO)O2)c(=O)n1` [Compound 6e, (−)-(2S,4S)-1-[2-(Hydroxymethyl)-1,3-dioxolan-4-yl]-4-N-valeryl-cytosine], the IC50 in series [1] (Homo sapiens, SW1573) worked out at 9.13 µM; in series [2] (Homo sapiens, A549) it was 5.23 µM.

As to `Nc1ccn([C@@H]2O[C@H](CO)[C@@H](O)C2(F)F)c(=O)n1` [Gemcitabine, reference compound], the IC50 in series [1] (Homo sapiens, SW1573) is 0.008 µM; in series [2] (Homo sapiens, A549) it was 0.013 µM.

In the case of `O=c1nc(NC2CC2)ccn1[C@@H]1CO[C@H](CO)O1` [Compound 6l, (−)-(2SAS)-1-[2-(Hydroxymethyl)-1,3-dioxolan-4-yl]-4-N-cyclopropyl-cytosine], the IC50 in series [1] amounted to 22 µM; in series [2], 18.7 µM.

`CC(=O)Nc1ccn([C@@H]2CO[C@H](CO)O2)c(=O)n1` [Compound 6a, (−)-(2S,4S)-1-[2-(Hydroxymethyl)-1,3-dioxolan-4-yl]-4-N-acetyl-cytosine]: the IC50 in series [1] (Homo sapiens, SW1573) is 10.7 µM; in series [2] (Homo sapiens, A549) it was 6.87 µM.

For the compound `O=C(Nc1ccn([C@@H]2CO[C@H](CO)O2)c(=O)n1)c1ccc(Cl)cc1Cl` [Compound 6t, (−)-(2S,4S)-1-[2-(Hydroxymethyl)-1,3-dioxolan-4-yl]-4-N-(2,4-dichlorobenzoyl)-cytosine], the melting point lay in the range of 185 to 187 °C. Moreover, the IC50 in series [1] (Homo sapiens, SW1573) amounted to 14.3 µM. The same compound displayed an IC50 in series [2] (Homo sapiens, A549) of 9.83 µM.

As for `CCCCCCC(=O)Nc1ccn([C@@H]2CO[C@H](CO)O2)c(=O)n1` [Compound 6g, (−)-(2S,4S)-1-[2-(Hydroxymethyl)-1,3-dioxolan-4-yl]-4-N-heptanoyl-cytosine], the IC50 in series [1] (Homo sapiens, SW1573) is 2.4 µM; in series [2] (Homo sapiens, A549), 1.04 µM.

Consider `COc1ccc(C(=O)Nc2ccn([C@@H]3CO[C@H](CO)O3)c(=O)n2)cc1` [Compound 6s, (−)-(2S,4S)-1-[2-(Hydroxymethyl)-1,3-dioxolan-4-yl]-4-N-(p-methoxybenzoyl)-cytosine], for which the IC50 was 10 µM in series [1] (Homo sapiens, SW1573) and 3.5 µM in series [2] (Homo sapiens, A549).

`O=c1nc(NC2CCCCC2)ccn1[C@@H]1CO[C@H](CO)O1` [Compound 6n, (−)-(2S,4S)-1-[2-(Hydroxymethyl)-1,3-dioxolan-4-yl]-4-N-cyclohexyl-cytosine]: the IC50 in series [1] (Homo sapiens, SW1573) worked out at 14 µM; in series [2] (Homo sapiens, A549), 7.37 µM.

`O=C(Nc1ccn([C@@H]2CO[C@H](CO)O2)c(=O)n1)c1ccccc1` [Compound 6o, (−)-(2S,4S)-1-[2-(Hydroxymethyl)-1,3-dioxolan-4-yl]-4-N-benzoyl-cytosine]: the IC50 is 13.7 µM in series [1] (Homo sapiens, SW1573) and 8.53 µM in series [2] (Homo sapiens, A549).

The term IC50 denotes the concentration at which inhibition is half-maximal. As a reminder, the melting point is the temperature of the solid-liquid transition.
